Key:
[1] = test system: Mouse cortical neurons (E17, DIV5); experiment: LIVE/DEAD assay, pre-treated mouse cortical neurons with 4HNE, H2O2 or Aβ42; format: cell-based; conditions: pre-treatment 24 h (1 μM midi-GAGR, dextran, alginate; 0.1 μM LA-GAGR; 0.01 μM HA-GAGR); for neuron death after Aβ42 peptide: 2 μM Aβ42 48 h, vehicle about 30%; for neuron death after 4HNE: 10 μM 4HNE 24 h, vehicle ~26%; for neuron death after H2O2: 50 μM H2O2 24 h, vehicle ~25%
Text: (§1) The protective effect of polysaccharides on primary cortical neurons from 4HNE, H2O2, and Aβ42 peptide (Sigma) was examined using LIVE/DEAD® Viability/Cytotoxicity Assay Kit (Life Technologies). Female pregnant mice (BALB/C, E17, Charles River Laboratories International, Inc.) or female pregnant SD rats (E17, bred in house) were anesthetized and dissected to obtain 8-9 embryos per animal. Cortical neurons were isolated from embryonic brains and differentiated on poly-L-lysine-coated coverslips in B27/neurobasal medium. For drug treatment before free radical treatment, mouse cortical neurons (5 days in vitro [DIV5.]) were treated with vehicle (H2O), 1 μM of 5 kD dextran (Sigma), alginate (Sigma), midi-GAGR, 0.01 μM of high acyl gellan gum (HA-GAGR, CPKelco Co.), or 0.1 μM of LA-GAGR for 24 h and then treated with 10 μM 4HNE or 50 μM H2O2 for 24 h, or 2 μM A[…]42 peptide for 48 h prior to viability/cytotoxicity assay. For drug co-treatment with free radicals, rat cortical neurons (DIV5) were treated with 1 μM of dextran, alginate, or midi-GAGR, 0.01 μM of HA-GAGR, or 0.1 μM of LA-GAGR along with either 10 μM 4HNE (24 h) or 2 μM Aβ42 peptide (48 h). To examine the extent to which midi-GAGR-mediated neuroprotection depends on FGFR1, rat cortical neurons (E17, DIV5) were pre-treated with 4 μM SU5402 (Sigma) for 6 h and treated with 10 μM 4HNE and either vehicle or 1 μM midi-GAGR for 24 h prior to cell viability/cytotoxicity assay. As controls, neurons were treated with SU5402, midi-GAGR, 4HNE, 4HNE plus midi-GAGR, or SU5402 plus midi-GAGR.
For cell viability/cytotoxicity measurement, neurons on glass coverslips were incubated in 1×PBS containing 2 μM calcein AM (live cells: green) and 4 μM ethidium homodimer-1 (dead cells: red) for 10 min at 37° C. Immediately thereafter, neurons were imaged by 10×objective using a fluorescence Olympus IX71 microscope (Olympus America Inc., Center Valley, Pa.) and, for the acquisition of high-quality images, using TCS SP5 multi-photon laser scanning confocal microscope.
Midi-GAGR attenuated neurite atrophy caused by free reactive radicals. It is now shown herein that midi-GAGR protect neurons from the death caused by free radical insults. The extent to which midi-GAGR protects the primary culture of rodent cortical neurons from 4HNE and H2O2 was determined. In addition to the radicals, amyloid β peptide (Aβ42) was also tested. Aβ42 peptide is a major causative factor that causes oxidative stress and neuron death. Mouse cortical neurons (E17, DIV5) were treated with 10 μM 4HNE (24 h), 50 μM H2O2 (24 h), or 2 μM Aβ42 peptide (48 h) after the treatment of the neurons with vehicle (H2O), midi-GAGR (1 μM), dextran (1 μM), alginate (1 μM), LA-GAGR (0.1 μM), or HA-GAGR (0.01 μM) for 24 h. The concentrations of 4HNE, H2O2, and Aβ42 peptide were chosen according to their patho-physiological concentrations. The concentrations of LA-GAGR and HA-GAGR were chosen because, within the same volume, the total numbers of sugar units in the polysaccharides at the concentrations are close to that of 1 μM midi-GAGR. The viability of neurons was assessed using LIVE/DEAD® Viability/Cytotoxicity Assay Kit in which membrane-permeant calcein AM is cleaved by esterase in live cells, thus yielding green fluorescence, and membrane-impermeant ethidium homodimer-1 stains the nucleic acids of plasma membrane-compromised cells with red fluorescence. The numbers of green (live) and red (dead) neurons in each condition were counted using Metamorph. Although the intensities of green fluorescent signals in neurons treated with either free radicals or Aβ42 peptide were weak, the neurons were included in the counting. About 8-9% of vehicle-treated neurons died during the process of live/dead cell assay (FIGS. 23A-23F, FIGS. 24A-24C).

[2] = test system: phosphorylated CREB in differentiated PC12 cells; experiment: Nuclear p-CREB immunostaining in PC12 cells; format: cell-based; conditions: 1 μM, 24 h
Experimental: (§2) Differentiated PC12 cells and mouse embryonic cortical neurons (E17, DIV14) were treated with mock, dextran, alginate, HA-GAGR or midi-GAGR (1 μM) for 24 h and fixed in 3.7% paraformaldehyde. The fixed cells and neurons were immunostained with antibodies against α-tubulin and phosopho-CREB (p-CREB) along with DAPI (nucleus).

[3] = test system: primary mouse cortical neurons (E17, DIV4); experiment: Neurite outgrowth in primary mouse cortical neurons; format: cell-based; conditions: 2 days; 1 μM midi-GAGR, dextran, alginate; 0.1 μM LA-GAGR; 0.01 μM HA-GAGR
Experimental: To analyze the effect of polysaccharides on neurite outgrowth, primary mouse cortical neurons were treated with vehicle (H2O) or 1 μM of dextran, alginate, or midi-GAGR, 0.01 μM of HA-GAGR, or 0.1 μM of LA-GAGR for 2 days prior to immunocytochemistry using anti-α-tubulin antibody and secondary Alexa488nm antibody. An etched grid coverslip containing 200 numbered boxes was used to select neurons objectively for image acquisition and analysis. A total of 24 boxes were randomly selected per treatment group. All the neurons having total neurite length longer than 4 times of the diameter of neuron cell body were chosen for image analysis. The total length of the neurites of each neuron was measured using Metamorph and used to calculate average total neurite length. To examine the effect of polysaccharides on the phosphorylation (activation) of nuclear CREB, neurons were stained with anti-pCREB antibody (Abcam & Santa Cruz biotechnologies, 2nd antibody with Alexa568nm), anti-α-tubulin antibody (Sigma, 2nd antibody with Alexa488nm), and DAPI (Sigma) after two-day incubation with vehicle (H2O) or 1 μM of dextran, alginate, or midi-GAGR, 0.01 μM of HA-GAGR, or 0.1 μM of LA-GAGR. […] The images of neurons on coverslips were taken by confocal microscopy at the same gain (850), offset (˜0.01) and exposure time (2 sec). The intensity of the staining of nuclear pCREB was measured using Metamorph and used to calculate average intensity. In addition, the phosphorylation of CREB in the cytosols of mouse cortical neurons treated with polysaccharides were detected by immunoblotting. Primary mouse neurons were dissected from 16 mouse embryos (E17) and plated in the wells of 6-well plates (1×10^6 cells/well), differentiated for 6 days, and treated with polysaccharides for 48 h. […] The protein bands on blots recognized by anti-pCREB (Santa Cruz Biotechnologies) and anti-CREB antibodies were detected on Amersham Hyperfilm™ ECL films (GE Healthcare Life Science) using SuperSignal® West Pico Chemiluminescent Substrate (Thermo Scientific).

[4] = test system: Differentiated dopaminergic PC12 cells; experiment: LIVE/DEAD viability of differentiated PC12 cells exposed to 6-OHDA; format: cell-based; conditions: 1 μM for 6 h, then 30 μM 6-OHDA for 24 h
Experimental: Differentiated dopaminergic PC12 cells and primary mouse embryonic cortical neurons (E17, DIV14) were treated with mock (H2O) or 1 μM of dextran, alginate, HA-GAGR or midi-GAGR for 6 h and insulated by oxidative stressors (30 μM 6-OHDA [PC12] and 10 μM amyloid β peptide [cortical neurons]) for 24 h.

[5] = test system: phosphorylated CREB in mouse embryonic cortical neurons; experiment: Nuclear p-CREB immunostaining in cortical neurons (Example 2); format: cell-based; conditions: 1 μM, 24 h
Experimental: as §2

[6] = test system: pCREB in mouse cortical neurons (E17, DIV6); experiment: Nuclear pCREB in midi-GAGR-treated neurons after signaling inhibitors; format: cell-based; conditions: inhibitor 6 h (SU5402 4 μM, staurosporine 3 nM, U0126 10 μM, LY294002 20 μM, KN-62 10 μM, PF-573228 1 μM), then 1 μM midi-GAGR 48 h
Experimental: To analyze the effect of polysaccharides on neurite outgrowth, primary mouse cortical neurons were treated with vehicle (H2O) or 1 μM of dextran, alginate, or midi-GAGR, 0.01 μM of HA-GAGR, or 0.1 μM of LA-GAGR for 2 days prior to immunocytochemistry using anti-α-tubulin antibody and secondary Alexa488nm antibody. An etched grid coverslip containing 200 numbered boxes was used to select neurons objectively for image acquisition and analysis. A total of 24 boxes were randomly selected per treatment group. All the neurons having total neurite length longer than 4 times of the diameter of neuron cell body were chosen for image analysis. The total length of the neurites of each neuron was measured using Metamorph and used to calculate average total neurite length. To examine the effect of polysaccharides on the phosphorylation (activation) of nuclear CREB, neurons were stained with anti-pCREB antibody (Abcam & Santa Cruz biotechnologies, 2nd antibody with Alexa568nm), anti-α-tubulin antibody (Sigma, 2nd antibody with Alexa488nm), and DAPI (Sigma) after two-day incubation with vehicle (H2O) or 1 μM of dextran, alginate, or midi-GAGR, 0.01 μM of HA-GAGR, or 0.1 μM of LA-GAGR. […] The images of neurons on coverslips were taken by confocal microscopy at the same gain (850), offset (˜0.01) and exposure time (2 sec). The intensity of the staining of nuclear pCREB was measured using Metamorph and used to calculate average intensity. In addition, the phosphorylation of CREB in the cytosols of mouse cortical neurons treated with polysaccharides were detected by immunoblotting. Primary mouse neurons were dissected from 16 mouse embryos (E17) and plated in the wells of 6-well plates (1×10^6 cells/well), differentiated for 6 days, and treated with polysaccharides for 48 h. Then, neurons were harvested and lysed in 1% Igepal CA-630 (Sigma)-containing PMEE buffer plus protease and phosphatase inhibitor cocktails (Sigma) for protein extraction. Extracted proteins were separated in 4-12% NuPAGE Bis-Tris protein gels (Life Technologies) and transferred to nitrocellulose membrane (GE Healthcare Life Science, Pittsburgh, Pa.) using a semidry blotter (Hoefer, Inc. San Francisco, Calif.). The protein bands on blots recognized by anti-pCREB (Santa Cruz Biotechnologies) and anti-CREB antibodies were detected on Amersham Hyperfilm™ ECL films (GE Healthcare Life Science) using SuperSignal® West Pico Chemiluminescent Substrate (Thermo Scientific).
Pharmacological agents were used to inhibit signaling molecules downstream of FGFR1 that mediate CREB phosphorylation. […] PF-573228 (PF, 1 μM) that inhibits FAK which sits at the bottleneck of the signaling pathway downstream of NCAM180 was also included to examine whether NCAM180 is involved in midi-GAGR-mediated CREB phosphorylation or not. […]

[7] = test system: Rat cortical neurons (E17, DIV6); experiment: LIVE/DEAD assay with FGFR1 inhibitor SU5402 and 4HNE; format: cell-based
Text: as §1, with “To examine the extent to which midi-GAGR-mediated neuroprotection depends on FGFR1, rat cortical neurons (E17, DIV5) were pre-treated with 4 μM SU5402 (Sigma) for 6 h and treated with 10 μM 4HNE and either vehicle or 1 μM midi-GAGR for 24 h prior to cell viability/cytotoxicity assay. As controls, neurons were treated with SU5402, midi-GAGR, 4HNE, 4HNE plus midi-GAGR, or SU5402 plus midi-GAGR.” left out

[8] = test system: pCREB in mouse cortical neurons; experiment: pCREB immunoblotting of neuron cytosols; format: cell-based; conditions: 48 h; 1 μM midi-GAGR, dextran, alginate; 0.1 μM LA-GAGR; 0.01 μM HA-GAGR
Experimental: (§3) To analyze the effect of polysaccharides on neurite outgrowth, primary mouse cortical neurons were treated with vehicle (H2O) or 1 μM of dextran, alginate, or midi-GAGR, 0.01 μM of HA-GAGR, or 0.1 μM of LA-GAGR for 2 days prior to immunocytochemistry using anti-α-tubulin antibody and secondary Alexa488nm antibody. An etched grid coverslip containing 200 numbered boxes was used to select neurons objectively for image acquisition and analysis. A total of 24 boxes were randomly selected per treatment group. All the neurons having total neurite length longer than 4 times of the diameter of neuron cell body were chosen for image analysis. The total length of the neurites of each neuron was measured using Metamorph and used to calculate average total neurite length. […] The intensity of the staining of nuclear pCREB was measured using Metamorph and used to calculate average intensity. In addition, the phosphorylation of CREB in the cytosols of mouse cortical neurons treated with polysaccharides were detected by immunoblotting. […] The protein bands on blots recognized by anti-pCREB (Santa Cruz Biotechnologies) and anti-CREB antibodies were detected on Amersham Hyperfilm™ ECL films (GE Healthcare Life Science) using SuperSignal® West Pico Chemiluminescent Substrate (Thermo Scientific). […]

[9] = test system: pCREB in mouse cortical neurons; experiment: Nuclear pCREB immunostaining in mouse cortical neurons (Example 4); format: cell-based; conditions: 48 h; 1 μM midi-GAGR, dextran, alginate; 0.1 μM LA-GAGR; 0.01 μM HA-GAGR
Experimental: as §3

[10] = ABTS Antioxidant Assay Kit; format: biochemical; conditions: 10 μM polysaccharide
Experimental: The antioxidant capacity of midi-GAGR was measured using ABTS Antioxidant Assay Kit (Zenbio Co.). […] This was slightly stronger than antioxidant capacity of LA-GAGR (10 μM LA-GAGR=15.4 μM trolox) (Table 2).

Compound	neuron death after Aβ42 peptide [1]	neuron death after 4HNE [1]	neuron death after H2O2 [1]	fold change in average total neurite length compared to vehicle [3]	average intensity of pCREB in midi-GAGR-treated neurons after inhibitor pre-treatment [6]	other results
alginate	did not decrease	reduced	did not reduce	did not enhance neuritogenesis		increase of the levels of nuclear p-CREB [2]: not significantly increased; 6-OHDA-induced cell death [4]: did not; increase of the levels of nuclear p-CREB [5]: not significantly increased
N#CC(=C(/N)Sc1ccccc1N)/C(C#N)=C(\N)Sc1ccccc1N [U0126]					significantly decreased	
CN([C@@H](Cc1ccc(OS(=O)(=O)c2cccc3cnccc23)cc1)C(=O)N1CCN(c2ccccc2)CC1)S(=O)(=O)c1cccc2cnccc12 [KN-62]					decreased slightly but still statistically significantly	
Cc1c[nH]c(/C=C2\C(=O)Nc3ccccc32)c1CCC(=O)O [SU5402]					significantly decreased	percent of dead cells, pre-treatment then 4HNE ([7]; SU5402 4 μM 6 h, then 10 μM 4HNE 24 h): ~80%; percent of dead cells without 4HNE ([7]; SU5402 4 μM, midi-GAGR 1 μM): did not increase
CS(=O)(=O)c1cccc(CNc2nc(Nc3ccc4c(c3)CCC(=O)N4)ncc2C(F)(F)F)c1 [PF-573228]					did not decrease	
[D-Glc(β1→4)D-GlcA(β1→4)D-Glc(β1→4)L-Rha(α1→3]n [LA-GAGR]	~10%	10%	~13%	~1.6 fold		levels of pCREB by immunoblotting compared to control [8]: significantly increased; average intensity of nuclear pCREB compared to vehicle [9]: ~2 fold; Antioxidant capacity, ABTS assay [10]: 15.4 μM Trolox

Reference: patent US10792301B2, “Therapeutic polysaccharide midi-GAGR and related materials and methods” (priority 2015, dated 2020)
